Measurements: article PMC4522657, “Identification of a DYRK1A Inhibitor that Induces Degradation of the Target Kinase using Co-chaperone CDC37 fused with Luciferase nanoKAZ” (Scientific Reports, 2015)

Legend:
Assay in all cases: Kinase panel, CaNDY 1 µM
Type in all cases: biochemical
Conditions in all cases: CaNDY 1 µM relative to DMSO
AXL = target: T1, AXL (Homo sapiens, UniProt P30530)
T1 construct: purchased Carna Biosciences
Excerpt: (§1) Detailed information on the assay conditions is available on the website of Carna Biosciences (http://www.carnabio.com/english/index.html; Kobe, Japan). In brief, full-length human recombinant kinases were expressed using a baculovirus expression system as amino-terminal GST-fusion proteins, and purified by glutathione-Sepharose chromatography. The GenBank accession numbers of DYRK1A, DYRK1B, DYRK2, and DYRK3 were NP_001387.2, NP_004705.1, NP_003574.1, and NP_003573.2. Kinase activities were evaluated by Off-chip Mobility Shift Assay after reaction of 1 μM of the substrate DYRKtide-F with ATP (25 μM for DYRK1A, 50 μM for DYRK1B, 10 μM for DYRK2, and 5 μM for DYRK3). For each compound, a DMSO solution was diluted in assay buffer to yield a final concentration of 1% DMSO. After incubation for one hour at room temperature, substrate phosphorylation was analyzed by electrophoretic separation of the substrate and products using a Caliper LC3000 platform (Caliper Life Sciences, Mountain View, CA, USA). The phosphorylated product (P)/(P + substrate) ratio was calculated at each concentration of each small molecule and the percent inhibition was expressed relative to a control assay in the absence of the small molecule. […] The IC50 of each compound was calculated by interpolation on a log-concentration-response curve fitted with a four-parameter logistic equation.
(§2) All kinase assays were carried out at Carna Biosciences. The inhibitory map was made with Kinome Render[36].

BRAF_Cascade = target: T2, BRAF_Cascade (Homo sapiens, UniProt P15056)
T2 construct: purchased Carna Biosciences
Excerpt: as §1, §2

CDC2/CycB1 = target: T3, CDC2/CycB1 (Homo sapiens, UniProt P06493)
T3 construct: purchased Carna Biosciences
Excerpt: as §1, §2

CDK4/CycD3 = target: T4, CDK4/CycD3 (Homo sapiens, UniProt P11802)
T4 construct: purchased Carna Biosciences
Excerpt: as §1, §2

CK1δ = target: T5, CK1δ (Homo sapiens, UniProt P48730)
T5 construct: purchased Carna Biosciences
Excerpt: as §1, §2

DDR2 = target: T6, DDR2 (Homo sapiens, UniProt Q16832)
T6 construct: purchased Carna Biosciences
Excerpt: as §1, §2

DYRK2 = target: T7, DYRK2 (Homo sapiens, UniProt Q92630)
T7 construct: purchased Carna Biosciences
Excerpt: as §1, §2

DYRK3 = target: T8, DYRK3 (Homo sapiens, UniProt O43781)
T8 construct: purchased Carna Biosciences
Excerpt: as §1, §2

EGFR = target: T9, EGFR (Homo sapiens, UniProt P00533)
T9 construct: purchased Carna Biosciences
Excerpt: as §1, §2

EGFR(d746-750) = target: T10, EGFR(d746-750) (Homo sapiens, UniProt P00533, DEL746-750)
T10 construct: purchased Carna Biosciences
Excerpt: as §1, §2

EPHA3 = target: T11, EPHA3 (Homo sapiens, UniProt P29320)
T11 construct: purchased Carna Biosciences
Excerpt: as §1, §2

EPHB2 = target: T12, EPHB2 (Homo sapiens, UniProt P29323)
T12 construct: purchased Carna Biosciences
Excerpt: as §1, §2

FGFR2 = target: T13, FGFR2 (Homo sapiens, UniProt P21802)
T13 construct: purchased Carna Biosciences
Excerpt: as §1, §2

HCK = target: T14, HCK (Homo sapiens, UniProt P08631)
T14 construct: purchased Carna Biosciences
Excerpt: as §1, §2

HIPK1 = target: T15, HIPK1 (Homo sapiens, UniProt Q86Z02)
T15 construct: purchased Carna Biosciences
Excerpt: as §1, §2

HIPK4 = target: T16, HIPK4 (Homo sapiens, UniProt Q8NE63)
T16 construct: purchased Carna Biosciences
Excerpt: as §1, §2

KIT(T670I) = target: T17, KIT(T670I) (Homo sapiens, UniProt P10721, T670I)
T17 construct: purchased Carna Biosciences
Excerpt: as §1, §2

LOK = target: T18, LOK (Homo sapiens, UniProt O94804)
T18 construct: purchased Carna Biosciences
Excerpt: as §1, §2

LYNa = target: T19, LYNa (Homo sapiens, UniProt P07948)
T19 construct: purchased Carna Biosciences
Excerpt: as §1, §2

MAP2K1_Cascade = target: T20, MAP2K1_Cascade (Homo sapiens, UniProt Q02750)
T20 construct: purchased Carna Biosciences
Excerpt: as §1, §2

MAPKAPK2 = target: T21, MAPKAPK2 (Homo sapiens, UniProt P49137)
T21 construct: purchased Carna Biosciences
Excerpt: as §1, §2

MELK = target: T22, MELK (Homo sapiens, UniProt Q14680)
T22 construct: purchased Carna Biosciences
Excerpt: as §1, §2

MOS_Cascade = target: T23, MOS_Cascade (Homo sapiens, UniProt P00540)
T23 construct: purchased Carna Biosciences
Excerpt: as §1, §2

MSK2 = target: T24, MSK2 (Homo sapiens, UniProt O75676)
T24 construct: purchased Carna Biosciences
Excerpt: as §1, §2

NEK9 = target: T25, NEK9 (Homo sapiens, UniProt Q8TD19)
T25 construct: purchased Carna Biosciences
Excerpt: as §1, §2

PAK2 = target: T26, PAK2 (Homo sapiens, UniProt Q13177)
T26 construct: purchased Carna Biosciences
Excerpt: as §1, §2

PAK4 = target: T27, PAK4 (Homo sapiens, UniProt O96013)
T27 construct: purchased Carna Biosciences
Excerpt: as §1, §2

PASK = target: T28, PASK (Homo sapiens, UniProt Q96RG2)
T28 construct: purchased Carna Biosciences
Excerpt: as §1, §2

PDGFRα(V561D) = target: T29, PDGFRα(V561D) (Homo sapiens, UniProt P16234, V561D)
T29 construct: purchased Carna Biosciences
Excerpt: as §1, §2

PKCη = target: T30, PKCη (Homo sapiens, UniProt P24723)
T30 construct: purchased Carna Biosciences
Excerpt: as §1, §2

PKCι = target: T31, PKCι (Homo sapiens, UniProt P41743)
T31 construct: purchased Carna Biosciences
Excerpt: as §1, §2

RET(M918T) = target: T32, RET(M918T) (Homo sapiens, UniProt P07949, M918T)
T32 construct: purchased Carna Biosciences
Excerpt: as §1, §2

RON = target: T33, RON (Homo sapiens, UniProt Q04912)
T33 construct: purchased Carna Biosciences
Excerpt: as §1, §2

SPHK1 = target: T34, SPHK1 (Homo sapiens, UniProt Q9NYA1)
T34 construct: purchased Carna Biosciences
Excerpt: as §1, §2

YES = target: T35, YES (Homo sapiens, UniProt P07947)
T35 construct: purchased Carna Biosciences
Excerpt: as §1, §2

p70S6Kβ = target: T36, p70S6Kβ (Homo sapiens, UniProt Q9UBS0)
T36 construct: purchased Carna Biosciences
Excerpt: as §1, §2

T21 sequence (P49137 whole entry): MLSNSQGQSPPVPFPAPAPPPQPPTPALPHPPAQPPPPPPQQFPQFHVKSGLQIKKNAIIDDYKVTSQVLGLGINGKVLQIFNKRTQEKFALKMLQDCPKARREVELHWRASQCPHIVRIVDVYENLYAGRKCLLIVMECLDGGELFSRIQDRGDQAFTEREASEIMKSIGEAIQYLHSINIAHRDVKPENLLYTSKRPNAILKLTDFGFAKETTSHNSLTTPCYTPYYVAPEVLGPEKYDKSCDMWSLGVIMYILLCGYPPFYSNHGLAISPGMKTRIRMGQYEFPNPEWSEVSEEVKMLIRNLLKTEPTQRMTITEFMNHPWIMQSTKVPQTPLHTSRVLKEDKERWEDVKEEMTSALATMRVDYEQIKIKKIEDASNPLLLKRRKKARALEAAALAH
T36 sequence (Q9UBS0 whole entry): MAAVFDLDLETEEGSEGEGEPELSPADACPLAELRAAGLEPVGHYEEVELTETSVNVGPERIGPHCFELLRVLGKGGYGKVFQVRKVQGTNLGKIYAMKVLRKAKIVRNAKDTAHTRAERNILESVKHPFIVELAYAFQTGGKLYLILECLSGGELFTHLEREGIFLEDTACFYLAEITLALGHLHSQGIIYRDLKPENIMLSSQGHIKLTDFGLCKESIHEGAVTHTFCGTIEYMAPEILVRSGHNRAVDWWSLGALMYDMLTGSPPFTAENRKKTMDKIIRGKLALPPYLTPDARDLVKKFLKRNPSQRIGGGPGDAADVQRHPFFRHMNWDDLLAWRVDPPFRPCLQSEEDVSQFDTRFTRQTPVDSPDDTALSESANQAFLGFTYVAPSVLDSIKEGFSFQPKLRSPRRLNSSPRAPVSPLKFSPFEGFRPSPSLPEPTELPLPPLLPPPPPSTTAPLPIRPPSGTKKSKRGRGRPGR
T8 sequence (O43781 whole entry): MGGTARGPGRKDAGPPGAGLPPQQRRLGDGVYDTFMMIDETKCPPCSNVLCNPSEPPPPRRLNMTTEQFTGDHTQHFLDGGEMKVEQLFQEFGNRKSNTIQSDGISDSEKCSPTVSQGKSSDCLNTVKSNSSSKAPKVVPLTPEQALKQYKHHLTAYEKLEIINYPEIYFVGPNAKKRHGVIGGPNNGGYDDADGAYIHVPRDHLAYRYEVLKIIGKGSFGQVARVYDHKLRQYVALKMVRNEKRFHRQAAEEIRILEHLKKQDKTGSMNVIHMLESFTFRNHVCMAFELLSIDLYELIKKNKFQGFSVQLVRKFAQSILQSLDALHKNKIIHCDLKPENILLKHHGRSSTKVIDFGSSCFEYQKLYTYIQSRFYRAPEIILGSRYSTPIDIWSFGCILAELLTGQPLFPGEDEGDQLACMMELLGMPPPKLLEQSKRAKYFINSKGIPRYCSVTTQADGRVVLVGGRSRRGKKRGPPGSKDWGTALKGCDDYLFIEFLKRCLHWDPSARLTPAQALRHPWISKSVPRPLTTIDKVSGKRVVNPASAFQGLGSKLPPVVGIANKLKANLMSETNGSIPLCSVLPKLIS
T31 sequence (P41743 whole entry): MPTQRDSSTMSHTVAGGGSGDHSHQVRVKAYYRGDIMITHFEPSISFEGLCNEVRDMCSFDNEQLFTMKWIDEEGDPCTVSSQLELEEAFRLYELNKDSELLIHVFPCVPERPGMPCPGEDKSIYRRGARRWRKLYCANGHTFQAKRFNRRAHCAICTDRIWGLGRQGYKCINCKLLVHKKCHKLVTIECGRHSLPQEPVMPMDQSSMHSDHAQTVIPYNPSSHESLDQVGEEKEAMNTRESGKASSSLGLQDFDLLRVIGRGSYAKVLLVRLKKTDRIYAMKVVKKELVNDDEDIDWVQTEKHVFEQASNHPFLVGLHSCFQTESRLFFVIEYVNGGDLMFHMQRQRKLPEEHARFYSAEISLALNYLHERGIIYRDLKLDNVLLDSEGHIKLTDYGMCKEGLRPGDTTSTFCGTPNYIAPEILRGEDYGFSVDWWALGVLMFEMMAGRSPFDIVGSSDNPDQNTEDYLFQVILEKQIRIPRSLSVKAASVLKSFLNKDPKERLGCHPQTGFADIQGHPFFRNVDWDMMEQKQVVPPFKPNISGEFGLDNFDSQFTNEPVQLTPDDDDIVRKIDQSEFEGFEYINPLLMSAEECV
T27 sequence (O96013 whole entry): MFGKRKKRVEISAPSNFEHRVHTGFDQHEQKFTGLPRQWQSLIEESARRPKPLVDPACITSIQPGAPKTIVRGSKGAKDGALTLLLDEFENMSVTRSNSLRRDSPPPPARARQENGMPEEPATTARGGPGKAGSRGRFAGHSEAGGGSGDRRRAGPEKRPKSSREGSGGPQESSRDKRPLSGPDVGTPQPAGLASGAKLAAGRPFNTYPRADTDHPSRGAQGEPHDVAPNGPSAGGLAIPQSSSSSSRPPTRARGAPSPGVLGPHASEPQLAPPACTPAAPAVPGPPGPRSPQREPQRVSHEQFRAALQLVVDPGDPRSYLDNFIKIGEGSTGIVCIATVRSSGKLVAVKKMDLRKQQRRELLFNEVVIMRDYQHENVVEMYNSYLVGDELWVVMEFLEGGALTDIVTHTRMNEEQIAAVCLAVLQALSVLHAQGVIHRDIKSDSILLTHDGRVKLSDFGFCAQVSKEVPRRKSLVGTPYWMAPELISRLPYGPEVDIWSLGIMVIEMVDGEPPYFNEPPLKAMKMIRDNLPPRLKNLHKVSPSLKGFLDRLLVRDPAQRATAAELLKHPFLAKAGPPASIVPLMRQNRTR
T35 sequence (P07947 whole entry): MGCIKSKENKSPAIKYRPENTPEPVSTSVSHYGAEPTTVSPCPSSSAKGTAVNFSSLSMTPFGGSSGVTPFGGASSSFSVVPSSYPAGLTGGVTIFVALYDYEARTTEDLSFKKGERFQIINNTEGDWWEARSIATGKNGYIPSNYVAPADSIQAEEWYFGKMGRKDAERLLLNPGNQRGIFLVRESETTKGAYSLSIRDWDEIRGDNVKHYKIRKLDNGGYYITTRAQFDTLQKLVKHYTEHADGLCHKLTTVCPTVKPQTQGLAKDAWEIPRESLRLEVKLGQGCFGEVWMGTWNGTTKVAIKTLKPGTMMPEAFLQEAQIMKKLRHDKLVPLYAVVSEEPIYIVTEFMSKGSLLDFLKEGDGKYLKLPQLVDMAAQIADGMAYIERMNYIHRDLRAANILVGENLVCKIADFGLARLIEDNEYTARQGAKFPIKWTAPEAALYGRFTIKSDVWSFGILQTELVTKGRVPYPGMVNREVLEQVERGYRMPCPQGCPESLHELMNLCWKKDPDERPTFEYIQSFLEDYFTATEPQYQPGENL
T1 sequence (P30530 26-894): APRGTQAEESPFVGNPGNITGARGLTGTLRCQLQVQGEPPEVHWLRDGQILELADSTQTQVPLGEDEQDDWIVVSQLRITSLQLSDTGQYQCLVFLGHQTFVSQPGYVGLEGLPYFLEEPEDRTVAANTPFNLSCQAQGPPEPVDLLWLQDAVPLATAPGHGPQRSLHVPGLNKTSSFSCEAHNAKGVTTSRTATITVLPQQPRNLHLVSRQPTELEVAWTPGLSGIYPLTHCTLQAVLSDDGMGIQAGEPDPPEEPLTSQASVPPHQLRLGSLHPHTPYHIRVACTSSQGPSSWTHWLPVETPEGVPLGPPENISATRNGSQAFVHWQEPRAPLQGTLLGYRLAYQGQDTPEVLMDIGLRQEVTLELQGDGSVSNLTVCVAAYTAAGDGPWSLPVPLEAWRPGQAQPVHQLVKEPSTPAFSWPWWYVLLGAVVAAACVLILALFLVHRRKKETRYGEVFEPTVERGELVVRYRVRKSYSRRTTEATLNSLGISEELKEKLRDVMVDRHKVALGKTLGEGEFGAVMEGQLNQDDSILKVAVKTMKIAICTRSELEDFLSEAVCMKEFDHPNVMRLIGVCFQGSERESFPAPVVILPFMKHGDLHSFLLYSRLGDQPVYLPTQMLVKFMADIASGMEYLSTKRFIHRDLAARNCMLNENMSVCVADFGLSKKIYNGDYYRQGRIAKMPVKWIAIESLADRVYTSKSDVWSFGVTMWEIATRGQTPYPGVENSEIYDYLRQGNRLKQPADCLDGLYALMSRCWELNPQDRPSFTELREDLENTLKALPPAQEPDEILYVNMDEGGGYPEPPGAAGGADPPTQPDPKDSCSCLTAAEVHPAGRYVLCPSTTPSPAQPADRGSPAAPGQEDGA
T30 sequence (P24723 whole entry): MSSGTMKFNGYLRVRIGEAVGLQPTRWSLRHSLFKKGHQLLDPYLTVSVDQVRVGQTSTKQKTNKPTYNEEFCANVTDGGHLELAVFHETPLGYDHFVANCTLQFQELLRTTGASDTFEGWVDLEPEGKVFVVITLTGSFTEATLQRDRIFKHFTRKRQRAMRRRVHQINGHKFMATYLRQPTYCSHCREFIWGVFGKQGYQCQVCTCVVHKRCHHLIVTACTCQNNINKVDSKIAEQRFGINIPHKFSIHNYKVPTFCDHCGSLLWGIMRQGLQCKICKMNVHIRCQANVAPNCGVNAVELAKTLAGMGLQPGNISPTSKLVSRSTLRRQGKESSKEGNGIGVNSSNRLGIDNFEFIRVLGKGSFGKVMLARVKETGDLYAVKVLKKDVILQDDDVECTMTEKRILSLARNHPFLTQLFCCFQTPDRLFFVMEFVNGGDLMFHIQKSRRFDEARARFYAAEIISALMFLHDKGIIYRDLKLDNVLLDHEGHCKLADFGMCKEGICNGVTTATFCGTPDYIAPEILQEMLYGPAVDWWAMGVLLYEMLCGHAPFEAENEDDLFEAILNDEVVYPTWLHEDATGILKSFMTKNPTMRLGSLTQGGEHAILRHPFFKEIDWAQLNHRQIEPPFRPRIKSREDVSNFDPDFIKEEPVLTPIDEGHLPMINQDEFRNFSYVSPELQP

In the case of `[H]/N=C1/NC(=O)C(=Cc2ccc3c(c2)CCO3)S1` [CaNDY, (Z)-5-[(2,3-dihydrobenzofuran-5-yl)methylene]-2-iminothiazolidin-4-one], the remaining activity at 1 µM (AXL) is reported as 103%, the remaining activity at 1 µM (BRAF_Cascade) is reported as 108% and the remaining activity at 1 µM (CDC2/CycB1) is reported as 65.7%. The remaining activity at 1 µM (CDK4/CycD3) was 86.4%, the remaining activity at 1 µM (CK1δ) was 67.9% and the remaining activity at 1 µM (DDR2) was 101%. The remaining activity at 1 µM (DYRK2) was 20.3%, the remaining activity at 1 µM (DYRK3) was 11% and the “%Activity” value (EGFR) was 99.9%. For the same compound, the “%Activity” value (EGFR(d746-750)) was 104.8%, the remaining activity at 1 µM (EPHA3) was 96.3% and the “%Activity” value (EPHB2) was 99.8%. It also gave a remaining activity at 1 µM (FGFR2) of 104%, a remaining activity at 1 µM (HCK) of 95.5% and a remaining activity at 1 µM (HIPK1) of 30.9%. For the same compound, the remaining activity at 1 µM (HIPK4) was 78.2%, the remaining activity at 1 µM (KIT(T670I)) was 96.6% and the “%Activity” value (LOK) was 106.3%. It also gave a remaining activity at 1 µM (LYNa) of 97.6%, a remaining activity at 1 µM (MAP2K1_Cascade) of 99.3% and a remaining activity at 1 µM (MAPKAPK2) of 100%. The remaining activity at 1 µM (MELK) was 91.5%, the remaining activity at 1 µM (MOS_Cascade) was 92.4% and the remaining activity at 1 µM (MSK2) was 98.3%. The remaining activity at 1 µM (NEK9) was 91.6%, the remaining activity at 1 µM (PAK2) was 101% and the remaining activity at 1 µM (PAK4) was 95%. The remaining activity at 1 µM (PASK) was 65.1%, the remaining activity at 1 µM (PDGFRα(V561D)) was 90.3% and the remaining activity at 1 µM (PKCη) was 92.8%. The remaining activity at 1 µM (PKCι) was 101%, the remaining activity at 1 µM (RET(M918T)) was 102% and the remaining activity at 1 µM (RON) was 98.6%. It also gave a remaining activity at 1 µM (SPHK1) of 83.5%, a remaining activity at 1 µM (YES) of 101% and a remaining activity at 1 µM (p70S6Kβ) of 88.9%.
